According to patent US20110152269A1, “PROCESS FOR TREATING ANIMAL HABITATS” (H&S Chemical Company, Inc., priority 2001, published 2011):

Columns and labels:
salmonella = assay: Monitoring for salmonella in treated poultry houses during grow out; details: houses and bedding sprayed with 200 ppm aqueous solution before placement of birds; two houses of 25,000 birds; wood chip bedding; 56 day grow out
Method: Two poultry houses containing 25,000 birds each were treated by spraying the houses and bedding contained therein with an aqueous solution of TCM, at a concentration of 200 ppm. Treatment was effected prior to placement of the birds in the poultry house. The bedding utilized was popular wood chips. After 56 days the grow out was complete. During the grow out the presence of salmonella was monitored.
An untreated poultry house containing 25,000 birds was monitored during a 56 day grow out for the presence of salmonella. The bedding utilized was popular wood chips. After 56 days the grow out was complete. During the grow out the poultry house tested positive for salmonella.

[1] = Ammonia concentration in treated poultry houses during grow out; details: houses and bedding sprayed with 200 ppm aqueous solution before placement of birds; two houses of 26,000 birds; wood chip bedding; 57 day grow out
Method: Two poultry houses containing 26,000 birds each were treated, by spraying the houses and bedding contained therein, with an aqueous solution of a product sold under the trademark PLT, at a concentration of 200 ppm. Treatment was effected prior to placement of the birds in the poultry houses. The bedding utilized was popular wood chips. After 57 days the grow out was complete. During the grow out periods the concentration of ammonia in the poultry houses varied between 30 and 70 ppm. […] Two poultry houses containing 26,000 birds each were treated by spraying the houses and bedding contained therein with an aqueous solution of TCM, at a concentration of 200 ppm. Treatment was effected prior to placement of the birds in the poultry houses. The bedding utilized was popular wood chips. After 57 days the grow out was complete. During the grow out the concentration of ammonia in the poultry houses never exceeded 20 ppm.

Q: Which “presence of salmonella during the grow out” value (salmonella) does the source give for trichloromelamine [TCM] here?
A: no salmonella was detected

Q: And the “concentration of ammonia in the poultry houses” value [1]?
A: ≤ 20 ppm
